US20260258084A1, “New Peptides as Selective IL-23 Receptor Antagonists” (Sanofi, priority 2022, published 2026)
Starred links: 1 amine or outer side, 2 acyl side, 3 side chain; linkers in the order of their positions; H or OH if unused. Positions of bridges follow the written chain, without caps; N, C: chain ends. Non-standard residues stand in square brackets, D forms with d. Residues, ends and D or L forms follow the SMILES beside them. *: point of attachment. X3 = CN(CCCCC(=O)N[C@@H](CS[*:2])C(=O)[*:1])[*:3]; Trp(7-Me) = Cc1cccc2c(C[C@H](N)C(=O)O)c[nH]c12; X1 = O=C(CCCCN[*:3])N[C@@H](CS[*:2])C(=O)[*:1]; 2Nal = N[C@@H](Cc1ccc2ccccc2c1)C(=O)O; AEF = NCCOc1ccc(C[C@H](N)C(=O)O)cc1; 3Pal = N[C@@H](Cc1cccnc1)C(=O)O; X4 = CN(CCCCCC(=O)[*:2])[*:1]; αMeL = CC(C)C[C@](C)(N)C(=O)O; Thp = NC1(C(=O)O)CCOCC1; Me2NCH2CH2 = CN(C)CC*; Aib = CC(C)(N)C(=O)O; Ava = NCCCCC(=O)O; βAla = NCCC(=O)O; Sar = CNCC(=O)O

Experiment: Chemical stability assessment of peptides (relative purity loss)
Format: physicochemical
Settings: 24 hours at 37° C.; for Chemical stability (relative purity loss) Buffer pH 1.2: 50 mM HCl pH 1.2 + acetonitrile (1:1); for Chemical stability (relative purity loss) Buffer pH 6.5: 50 mM phosphate buffer pH 6.5 + acetonitrile (1:1); for Chemical stability (relative purity loss) Buffer pH 7.4: 50 mM phosphate buffer pH 7.4 + acetonitrile (1:1)
In short: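 Peptide solutions at 1 mg/ml (purity-corrected) in 1:1 acetonitrile with 50 mM HCl pH 1.2, or 50 mM phosphate pH 6.5 or pH 7.4, held 24 hours at 2° C. and 37° C. Supernatants analysed by UHPLC-UV; relative purity loss taken as percent drop in peak-area purity from 0 to 24 hours at 37° C.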

| Structure (SMILES) | Chemical stability (relative purity loss) Buffer pH 1.2 [%] | Chemical stability (relative purity loss) Buffer pH 6.5 [%] | Chemical stability (relative purity loss) Buffer pH 7.4 [%] |
| --- | --- | --- | --- |
| CC(=O)N[C@H]1CCCCNC(=O)[C@@H]2CSSC[C@H](NC(=O)[C@H](CCC(N)=O)NC(=O)[C@H](Cc3c[nH]c4ccccc34)NC1=O)C(=O)N[C@@H](Cc1ccc(OCCN)cc1)C(=O)N[C@@H](Cc1ccc3ccccc3c1)C(=O)N[C@@](C)(CC(C)C)C(=O)N[C@H](C(=O)N[C@@H](C)C(=O)N[C@H](CC(C)C)C(N)=O)CCC(=O)N(C)CCCCC(=O)N2 [compound 44] (Ac-KWQC[AEF][2Nal][αMeL]EA[dL]-NH2; linker 1-4-8 via X3) | 4.1 | 0.1 | 0.2 |
| CC(=O)NCCCC[C@@H]1NC(=O)[C@H](Cc2c[nH]c3c(C)cccc23)NC(=O)[C@H]([C@@H](C)O)NC(=O)[C@H](CC(N)=O)NC(=O)[C@@H]2CSSC[C@H](NC1=O)C(=O)N[C@@H](Cc1ccc(OCCN(C)C)cc1)C(=O)N[C@@H](Cc1ccc3ccccc3c1)C(=O)NC1(CCOCC1)C(=O)N[C@H](C(=O)N[C@@H](CC(N)=O)C(=O)N[C@@H](Cc1c[nH]cn1)C(=O)NCCC(N)=O)CCC(=O)NCCCCC(=O)N2 [compound 49] ([Ava]CNT[Trp(7-Me)]K(Ac)CY(Me2NCH2CH2)[2Nal][Thp]ENH[βAla]-NH2; disulfide 2-7; lactam N-11) | 11.6 | 1.2 | 1.4 |
| CC(=O)N[C@H]1CCCCNC(=O)[C@@H]2CSSC[C@H](NC(=O)[C@H](CCC(N)=O)NC(=O)[C@H](Cc3c[nH]c4ccccc34)NC1=O)C(=O)N[C@@H](Cc1ccc(OCCN)cc1)C(=O)N[C@@H](Cc1ccc3ccccc3c1)C(=O)NC(C)(C)C(=O)N[C@H](C(=O)N[C@@H](CC(N)=O)C(=O)NCC(N)=O)CCC(=O)N(C)CCCCC(=O)N2 [compound 15] (Ac-KWQC[AEF][2Nal][Aib]ENG-NH2; linker 1-4-8 via X3) | 14.3 | 2.9 | 5.1 |
| CC(=O)NCCCC[C@@H]1NC(=O)[C@H](Cc2c[nH]c3c(C)cccc23)NC(=O)[C@H]([C@@H](C)O)NC(=O)[C@H](CC(N)=O)NC(=O)[C@@H]2CSSC[C@H](NC1=O)C(=O)N[C@@H](Cc1ccc(OCCN(C)C)cc1)C(=O)N[C@@H](Cc1ccc3ccccc3c1)C(=O)NC1(CCOCC1)C(=O)N[C@H](C(=O)N[C@@H](CC(N)=O)C(=O)N[C@@H](Cc1cccnc1)C(N)=O)CCC(=O)NCCCCC(=O)N2 [compound 51] ([Ava]CNT[Trp(7-Me)]K(Ac)CY(Me2NCH2CH2)[2Nal][Thp]EN[3Pal]-NH2; disulfide 2-7; lactam N-11) | 17.1 | 0.2 | 0.7 |
| COc1ccc(C[C@@H]2NC(=O)[C@@H]3CSSC[C@H](NC(=O)CCCCNC(=O)CC[C@@H](C(=O)N[C@@H](CC(N)=O)C(=O)NCC(N)=O)NC(=O)C(C)(C)NC(=O)[C@H](Cc4ccc5ccccc5c4)NC2=O)C(=O)N[C@@H](CC(N)=O)C(=O)N[C@@H]([C@@H](C)O)C(=O)N[C@@H](Cc2c[nH]c4ccccc24)C(=O)N[C@@H](CCC(N)=O)C(=O)N3)cc1 [compound 4] ([Ava]CNTWQCY(Me)[2Nal][Aib]ENG-NH2; disulfide 2-7; lactam N-11) | 22.4 | 0.7 | 7.0 |
| CC(=O)N[C@H]1CCCCNC(=O)[C@@H]2CSSC[C@H](NC(=O)[C@H](CCC(N)=O)NC(=O)[C@H](Cc3c[nH]c4ccccc34)NC1=O)C(=O)N[C@@H](Cc1ccc(OCCN)cc1)C(=O)N[C@@H](Cc1ccc3ccccc3c1)C(=O)NC1(CCOCC1)C(=O)N[C@H](C(=O)N[C@@H](C)C(=O)NCC(N)=O)CCC(=O)N(C)CCCCC(=O)N2 [compound 17] (Ac-KWQC[AEF][2Nal][Thp]EAG-NH2; linker 1-4-8 via X3) | 5.6 | 0.0 | 0.0 |
| CC(=O)NCCCC[C@@H]1NC(=O)[C@H](Cc2c[nH]c3c(C)cccc23)NC(=O)[C@H]([C@@H](C)O)NC(=O)[C@H](CC(N)=O)NC(=O)[C@@H]2CSSC[C@H](NC1=O)C(=O)N[C@@H](Cc1ccc(OCCN(C)C)cc1)C(=O)N[C@@H](Cc1ccc3ccccc3c1)C(=O)NC(C)(C)C(=O)N[C@H](C(=O)N[C@@H](CC(N)=O)C(=O)N[C@@H](Cc1c[nH]cn1)C(=O)N(C)CC(N)=O)CCC(=O)NCCCCC(=O)N2 [compound 45] ([Ava]CNT[Trp(7-Me)]K(Ac)CY(Me2NCH2CH2)[2Nal][Aib]ENH[Sar]-NH2; disulfide 2-7; lactam N-11) | 15.7 | 0.0 | 2.3 |
| CC(=O)N[C@H]1CCCCNC(=O)[C@@H]2CSSC[C@H](NC(=O)[C@H](CCC(N)=O)NC(=O)[C@H](Cc3c[nH]c4ccccc34)NC1=O)C(=O)N[C@@H](Cc1ccc(OCCN)cc1)C(=O)N[C@@H](Cc1ccc3ccccc3c1)C(=O)NC1(CCOCC1)C(=O)N[C@H](C(=O)N[C@@H](C)C(=O)N[C@H](CC(C)C)C(N)=O)CCC(=O)N(C)CCCCC(=O)N2 [compound 34] (Ac-KWQC[AEF][2Nal][Thp]EA[dL]-NH2; linker 1-4-8 via X3) | 7.9 | 0.0 | 0.3 |
| CC(=O)NCCCC[C@@H]1NC(=O)[C@H](Cc2c[nH]c3c(C)cccc23)NC(=O)[C@H]([C@@H](C)O)NC(=O)[C@H](CC(N)=O)NC(=O)[C@@H]2CSSC[C@H](NC1=O)C(=O)N[C@@H](Cc1ccc(OCCN(C)C)cc1)C(=O)N[C@@H](Cc1ccc3ccccc3c1)C(=O)NC(C)(C)C(=O)N[C@H](C(=O)N[C@@H](CC(N)=O)C(=O)N[C@@H](Cc1c[nH]cn1)C(=O)NCCC(N)=O)CCC(=O)NCCCCC(=O)N2 [compound 48] ([Ava]CNT[Trp(7-Me)]K(Ac)CY(Me2NCH2CH2)[2Nal][Aib]ENH[βAla]-NH2; disulfide 2-7; lactam N-11) | 12.5 | 1.3 | 2.8 |
| CC(C)C[C@@H](NC(=O)[C@H](CC(N)=O)NC(=O)[C@@H]1CC(=O)N(C)CCCCCC(=O)N[C@H]2CSSC[C@H](NC(=O)[C@H](CCC(N)=O)NC(=O)[C@H](Cc3c[nH]c4ccccc34)NC(=O)[C@H]([C@@H](C)O)NC(=O)[C@H](CC(N)=O)NC2=O)C(=O)N[C@@H](Cc2ccc(OCCN(C)C)cc2)C(=O)N[C@@H](Cc2ccc3ccccc3c2)C(=O)N[C@@](C)(CC(C)C)C(=O)N1)C(N)=O [compound 40] ([X4]CNTWQCY(Me2NCH2CH2)[2Nal][αMeL]DN[dL]-NH2; disulfide 2-7; lactam N-11) | 8.3 | 1.3 | 3.0 |
| CC(=O)N[C@H]1CCCCNC(=O)[C@@H]2CSSC[C@H](NC(=O)[C@H](CCC(N)=O)NC(=O)[C@H](Cc3c[nH]c4ccccc34)NC1=O)C(=O)N[C@@H](Cc1ccc(OCCN)cc1)C(=O)N[C@@H](Cc1ccc3ccccc3c1)C(=O)N[C@@](C)(CC(C)C)C(=O)N[C@H](C(=O)N[C@@H](CC(N)=O)C(=O)N[C@@H](CC(N)=O)C(N)=O)CCC(=O)N(C)CCCCC(=O)N2 [compound 14] (Ac-KWQC[AEF][2Nal][αMeL]ENN-NH2; linker 1-4-8 via X3) | 25.8 | 0.6 | 0.1 |
| CC(=O)N[C@H]1CCCCNC(=O)[C@@H]2CSSC[C@H](NC(=O)[C@H](CCC(N)=O)NC(=O)[C@H](Cc3c[nH]c4ccccc34)NC1=O)C(=O)N[C@@H](Cc1ccc(OCCN)cc1)C(=O)N[C@@H](Cc1ccc3ccccc3c1)C(=O)NC1(CCOCC1)C(=O)N[C@H](C(=O)N[C@@H](CC(N)=O)C(=O)NCC(N)=O)CCC(=O)N(C)CCCCC(=O)N2 [compound 16] (Ac-KWQC[AEF][2Nal][Thp]ENG-NH2; linker 1-4-8 via X3) | 13.2 | 1.1 | 4.2 |
| CC(=O)N[C@H]1CCCCNC(=O)[C@@H]2CSSC[C@H](NC(=O)[C@H](CCC(N)=O)NC(=O)[C@H](Cc3c[nH]c4ccccc34)NC1=O)C(=O)N[C@@H](Cc1ccc(OCCN(C)C)cc1)C(=O)N[C@@H](Cc1ccc3ccccc3c1)C(=O)NC1(CCOCC1)C(=O)N[C@H](C(=O)N[C@@H](C)C(=O)N[C@H](CC(C)C)C(N)=O)CCC(=O)NCCCCC(=O)N2 [compound 33] (Ac-KWQCY(Me2NCH2CH2)[2Nal][Thp]EA[dL]-NH2; linker 1-4-8 via X1) | 5.9 | 0.5 | 0.1 |
| CC(C)C[C@]1(C)NC(=O)[C@H](Cc2ccc3ccccc3c2)NC(=O)[C@H](Cc2ccc(OCCN(C)C)cc2)NC(=O)[C@@H]2CSSC[C@H](NC(=O)CCCCNC(=O)CC[C@@H](C(=O)N[C@@H](CC(N)=O)C(=O)N[C@@H](CC(N)=O)C(N)=O)NC1=O)C(=O)N[C@@H](CC(N)=O)C(=O)N[C@@H]([C@@H](C)O)C(=O)N[C@@H](Cc1c[nH]c3ccccc13)C(=O)N[C@@H](CCC(N)=O)C(=O)N2 [compound 27] ([Ava]CNTWQCY(Me2NCH2CH2)[2Nal][αMeL]ENN-NH2; disulfide 2-7; lactam N-11) | 23.8 | 0.0 | 8.7 |
